Measurements reported in ChEMBL document CHEMBL1201862, “PubChem BioAssay data set” (2004).
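Each compound was tested at five concentrations against cells in 96-well plates for 48 hours. Abbreviation: GI50, concentration required for 50% inhibition of growth.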 Activity calls are given as the source filed them. Cut-off read from the data, not from the text of the source: active = GI50 up to about 1.1 µM and inactive = higher.

Key:
Assay in all cases: NCI tumour cell line growth inhibition, 48 h
UO-31 = tested on: UO-31
SNB-75 = tested on: SNB-75
HCT-116 = tested on: HCT-116
SK-MEL-28 = tested on: SK-MEL-28
TK-10 = tested on: TK-10
SK-OV-3 = tested on: SK-OV-3
NCI-H522 = tested on: NCI-H522
SF-295 = tested on: SF-295
SK-MEL-2 = tested on: SK-MEL-2
CCRF-CEM = tested on: CCRF-CEM
NCI-H226 = tested on: NCI-H226
A549 = tested on: A549
SNB-19 = tested on: SNB-19
CAKI-1 = tested on: CAKI-1
HCT-15 = tested on: HCT-15
OVCAR-3 = tested on: OVCAR-3
LXFL 529 = tested on: LXFL 529
A498 = tested on: A498
Malme-3M = tested on: Malme-3M
KM-20L2 = tested on: KM-20L2
SNB-78 = tested on: SNB-78
U-251 = tested on: U-251
RXF 631 = tested on: RXF 631
OVCAR-4 = tested on: OVCAR-4
ACHN = tested on: ACHN
NCI-H23 = tested on: NCI-H23
HOP-92 = tested on: HOP-92
M19-MEL = tested on: M19-MEL
MOLT-4 = tested on: MOLT-4
HL-60 = tested on: HL-60
HT-29 = tested on: HT-29
HOP-18 = tested on: HOP-18
K562 = tested on: K562
RPMI-8226 = tested on: RPMI-8226
786-0 = tested on: 786-0
M14 = tested on: M14
IGROV-1 = tested on: IGROV-1
SF-268 = tested on: SF-268
NCI-H460 = tested on: NCI-H460
DLD-1 = tested on: DLD-1
SF-539 = tested on: SF-539
XF498 = tested on: XF498
UACC-257 = tested on: UACC-257
UACC-62 = tested on: UACC-62
EKVX = tested on: EKVX
OVCAR-8 = tested on: OVCAR-8
DMS-273 = tested on: DMS-273
KM12 = tested on: KM12
SN12C = tested on: SN12C
SK-MEL-5 = tested on: SK-MEL-5
COLO 205 = tested on: COLO 205
SW-620 = tested on: SW-620
OVCAR-5 = tested on: OVCAR-5
DMS-114 = tested on: DMS-114
LOX IMVI = tested on: LOX IMVI
HCC 2998 = tested on: HCC 2998
RXF 393 = tested on: RXF 393
HOP-62 = tested on: HOP-62

Compound: Cc1cc(Cl)ccc1NC(=O)CCCC(=O)C1CCC/C1=N\NC(=O)CC#N (stereo not given)
- GI50 (UO-31): > 100 µM (inactive)
- GI50 (SNB-75): > 100 µM (inactive)
- GI50 (HCT-116): > 100 µM (inactive)
- GI50 (SK-MEL-28): > 100 µM (inactive)
- GI50 (TK-10): > 100 µM (inactive)
- GI50 (SK-OV-3): > 100 µM (inactive)
- GI50 (NCI-H522): > 100 µM (inactive)
- GI50 (SF-295): > 100 µM (inactive)
- GI50 (SK-MEL-2): > 100 µM (inactive)
- GI50 (CCRF-CEM): > 100 µM (inactive)
- GI50 (NCI-H226): > 100 µM (inactive)
- GI50 (A549): > 100 µM (inactive)
- GI50 (SNB-19): > 100 µM (inactive)
- GI50 (CAKI-1): > 100 µM (inactive)
- GI50 (HCT-15): > 100 µM
- GI50 (OVCAR-3): > 100 µM (inactive)
- GI50 (LXFL 529): > 100 µM (inactive)
- GI50 (A498): > 100 µM (inactive)
- GI50 (Malme-3M): > 100 µM (inactive)
- GI50 (KM-20L2): > 100 µM (inactive)
- GI50 (SNB-78): > 100 µM (inactive)
- GI50 (U-251): > 100 µM (inactive)
- GI50 (RXF 631): > 100 µM (inactive)
- GI50 (OVCAR-4): > 100 µM (inactive)
- GI50 (ACHN): > 100 µM (inactive)
- GI50 (NCI-H23): > 100 µM (inactive)
- GI50 (HOP-92): > 100 µM (inactive)
- GI50 (M19-MEL): > 100 µM (inactive)
- GI50 (MOLT-4): > 100 µM (inactive)
- GI50 (HL-60): > 100 µM (inactive)
- GI50 (HT-29): > 100 µM (inactive)
- GI50 (HOP-18): 17.2 µM (inactive)
- GI50 (K562): > 100 µM (inactive)
- GI50 (RPMI-8226): 75.3 µM (inactive)
- GI50 (786-0): > 100 µM (inactive)
- GI50 (M14): > 100 µM (inactive)
- GI50 (IGROV-1): > 100 µM (inactive)
- GI50 (SF-268): > 100 µM (inactive)
- GI50 (NCI-H460): > 100 µM (inactive)
- GI50 (DLD-1): > 100 µM (inactive)
- GI50 (SF-539): > 100 µM (inactive)
- GI50 (XF498): > 100 µM (inactive)
- GI50 (UACC-257): > 100 µM (inactive)
- GI50 (UACC-62): > 100 µM (inactive)
- GI50 (EKVX): > 100 µM (inactive)
- GI50 (OVCAR-8): > 100 µM (inactive)
- GI50 (DMS-273): > 100 µM (inactive)
- GI50 (KM12): > 100 µM (inactive)
- GI50 (SN12C): > 100 µM (inactive)
- GI50 (SK-MEL-5): > 100 µM (inactive)
- GI50 (COLO 205): > 100 µM (inactive)
- GI50 (SW-620): > 100 µM (inactive)
- GI50 (OVCAR-5): > 100 µM (inactive)
- GI50 (DMS-114): > 100 µM (inactive)

Compound: CN(C)C(c1ccccc1)C(O)c1ccccc1 (stereo not given)
- GI50 (UO-31): > 100 µM (inactive)
- GI50 (SNB-75): 75.5 µM (inactive)
- GI50 (SK-MEL-28): > 100 µM (inactive)
- GI50 (TK-10): > 100 µM (inactive)
- GI50 (SK-OV-3): > 100 µM (inactive)
- GI50 (NCI-H522): > 100 µM (inactive)
- GI50 (SF-295): > 100 µM (inactive)
- GI50 (SK-MEL-2): > 100 µM (inactive)
- GI50 (CCRF-CEM): > 100 µM (inactive)
- GI50 (NCI-H226): > 100 µM (inactive)
- GI50 (A549): > 100 µM (inactive)
- GI50 (SNB-19): > 100 µM (inactive)
- GI50 (CAKI-1): > 100 µM (inactive)
- GI50 (HCT-15): > 100 µM
- GI50 (OVCAR-3): > 100 µM (inactive)
- GI50 (LXFL 529): > 100 µM (inactive)
- GI50 (A498): > 100 µM (inactive)
- GI50 (Malme-3M): > 100 µM (inactive)
- GI50 (LOX IMVI): > 100 µM (inactive)
- GI50 (KM-20L2): > 100 µM (inactive)
- GI50 (SNB-78): > 100 µM (inactive)
- GI50 (U-251): > 100 µM (inactive)
- GI50 (RXF 631): > 100 µM (inactive)
- GI50 (ACHN): > 100 µM (inactive)
- GI50 (NCI-H23): > 100 µM (inactive)
- GI50 (M19-MEL): > 100 µM (inactive)
- GI50 (HCC 2998): > 100 µM (inactive)
- GI50 (MOLT-4): > 100 µM (inactive)
- GI50 (HL-60): > 100 µM (inactive)
- GI50 (HT-29): > 100 µM (inactive)
- GI50 (HOP-18): > 100 µM (inactive)
- GI50 (K562): > 100 µM (inactive)
- GI50 (RPMI-8226): > 100 µM (inactive)
- GI50 (786-0): > 100 µM (inactive)
- GI50 (M14): > 100 µM (inactive)
- GI50 (IGROV-1): > 100 µM (inactive)
- GI50 (SF-268): > 100 µM (inactive)
- GI50 (NCI-H460): > 100 µM (inactive)
- GI50 (DLD-1): > 100 µM (inactive)
- GI50 (SF-539): > 100 µM (inactive)
- GI50 (XF498): > 100 µM (inactive)
- GI50 (UACC-257): > 100 µM (inactive)
- GI50 (UACC-62): > 100 µM (inactive)
- GI50 (EKVX): > 100 µM (inactive)
- GI50 (DMS-273): > 100 µM (inactive)
- GI50 (KM12): > 100 µM (inactive)
- GI50 (RXF 393): > 100 µM (inactive)
- GI50 (SN12C): > 100 µM (inactive)
- GI50 (COLO 205): > 100 µM (inactive)
- GI50 (SW-620): > 100 µM (inactive)
- GI50 (HOP-62): > 100 µM (inactive)
- GI50 (DMS-114): > 100 µM (inactive)

Compound: Cc1cccc2[n+]1[C@H]1[C@H]([C@@H]3O[C@H]1c1ccccc13)[S+]([O-])N2 (stereo not given in full)
- GI50 (UO-31): 64.7 µM (inactive)
- GI50 (SNB-75): 58.5 µM (inactive)
- GI50 (HCT-116): 30.3 µM (inactive)
- GI50 (SK-MEL-28): > 100 µM (inactive)
- GI50 (TK-10): 90.4 µM (inactive)
- GI50 (SK-OV-3): > 100 µM (inactive)
- GI50 (NCI-H522): 34.8 µM (inactive)
- GI50 (SF-295): 59.8 µM (inactive)
- GI50 (SK-MEL-2): 25.2 µM (inactive)
- GI50 (CCRF-CEM): 34.8 µM (inactive)
- GI50 (A549): 63.2 µM (inactive)
- GI50 (SNB-19): 37.9 µM (inactive)
- GI50 (OVCAR-3): 35.9 µM (inactive)
- GI50 (LXFL 529): 33.7 µM (inactive)
- GI50 (A498): 93.3 µM (inactive)
- GI50 (Malme-3M): 28.6 µM (inactive)
- GI50 (LOX IMVI): 25.9 µM (inactive)
- GI50 (KM-20L2): 42.7 µM (inactive)
- GI50 (SNB-78): 23.3 µM (inactive)
- GI50 (U-251): 43.8 µM (inactive)
- GI50 (RXF 631): > 100 µM (inactive)
- GI50 (ACHN): 57.7 µM (inactive)
- GI50 (HOP-92): 11.9 µM (inactive)
- GI50 (M19-MEL): 29.9 µM (inactive)
- GI50 (HCC 2998): 72.8 µM (inactive)
- GI50 (MOLT-4): 38.2 µM (inactive)
- GI50 (HL-60): 24.4 µM (inactive)
- GI50 (HT-29): 34.4 µM (inactive)
- GI50 (HOP-18): 21.2 µM (inactive)
- GI50 (K562): 23 µM (inactive)
- GI50 (RPMI-8226): 10.8 µM (inactive)
- GI50 (786-0): > 100 µM (inactive)
- GI50 (IGROV-1): 32.3 µM (inactive)
- GI50 (SF-268): 41.1 µM (inactive)
- GI50 (NCI-H460): 25 µM (inactive)
- GI50 (DLD-1): > 100 µM (inactive)
- GI50 (SF-539): 77.6 µM (inactive)
- GI50 (XF498): 20.2 µM (inactive)
- GI50 (UACC-257): 32.5 µM (inactive)
- GI50 (EKVX): 44.4 µM (inactive)
- GI50 (OVCAR-8): 9.98 µM (inactive)
- GI50 (DMS-273): 27.2 µM (inactive)
- GI50 (KM12): 42.4 µM (inactive)
- GI50 (RXF 393): 89.1 µM (inactive)
- GI50 (COLO 205): 61.1 µM (inactive)
- GI50 (SW-620): > 100 µM (inactive)
- GI50 (HOP-62): 48.1 µM (inactive)
- GI50 (OVCAR-5): 80.7 µM (inactive)
- GI50 (DMS-114): 22.7 µM (inactive)
